The IC50 is the concentration needed to halve the response being measured. Lower therefore signals greater potency.

Among the data in patent publication US11420958B2, “Aryl and heteroaryl substituted indole compounds” (BRISTOL-MYERS SQUIBB COMPANY, priority 2017, dated 2022) are IC50 values, retold here.

Common to all, as to assay type: cell-based
The target in one experiment is human TLR8 (Homo sapiens (Human), UniProt Q9NR97). The experiment can be described thus: TLR8 inhibition reporter assay (HEK-Blue, SEAP). The settings on record: HEK-Blue cells overexpressing human TLR8, R848 15.9 μM stimulation. The gist of the method: (§1)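 Reporter cells, NF-κB/AP-1-driven SEAP; cmpd 0.05 nM–50 μM final, 30 min RT pre-treat; stim gardiquimod 7.5 μM (TLR7), R848 15.9 μM (TLR8), ODN2006 5 nM (TLR9); 22 h 37 °C; % inhibition of SEAP signal.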

The target in the next experiment is human TLR9 (Homo sapiens (Human), UniProt Q9NR96). The experiment can be described thus: TLR9 inhibition reporter assay (HEK-Blue, SEAP). The settings on record: HEK-Blue cells overexpressing human TLR9, ODN2006 5 nM stimulation. The gist of the method:
as §1
(In a reporter assay the amount or activity of a reporter protein is the signal.)

Another experiment deals with human TLR7 (Homo sapiens (Human), UniProt Q9NYK1). The experiment can be described thus: TLR7 inhibition reporter assay (HEK-Blue, SEAP). The settings on record: HEK-Blue cells overexpressing human TLR7, gardiquimod 7.5 μM stimulation. The gist of the method:
as §1

The structures appear in SMILES notation.

human TLR9, sequence (Q9NR96 26-1032): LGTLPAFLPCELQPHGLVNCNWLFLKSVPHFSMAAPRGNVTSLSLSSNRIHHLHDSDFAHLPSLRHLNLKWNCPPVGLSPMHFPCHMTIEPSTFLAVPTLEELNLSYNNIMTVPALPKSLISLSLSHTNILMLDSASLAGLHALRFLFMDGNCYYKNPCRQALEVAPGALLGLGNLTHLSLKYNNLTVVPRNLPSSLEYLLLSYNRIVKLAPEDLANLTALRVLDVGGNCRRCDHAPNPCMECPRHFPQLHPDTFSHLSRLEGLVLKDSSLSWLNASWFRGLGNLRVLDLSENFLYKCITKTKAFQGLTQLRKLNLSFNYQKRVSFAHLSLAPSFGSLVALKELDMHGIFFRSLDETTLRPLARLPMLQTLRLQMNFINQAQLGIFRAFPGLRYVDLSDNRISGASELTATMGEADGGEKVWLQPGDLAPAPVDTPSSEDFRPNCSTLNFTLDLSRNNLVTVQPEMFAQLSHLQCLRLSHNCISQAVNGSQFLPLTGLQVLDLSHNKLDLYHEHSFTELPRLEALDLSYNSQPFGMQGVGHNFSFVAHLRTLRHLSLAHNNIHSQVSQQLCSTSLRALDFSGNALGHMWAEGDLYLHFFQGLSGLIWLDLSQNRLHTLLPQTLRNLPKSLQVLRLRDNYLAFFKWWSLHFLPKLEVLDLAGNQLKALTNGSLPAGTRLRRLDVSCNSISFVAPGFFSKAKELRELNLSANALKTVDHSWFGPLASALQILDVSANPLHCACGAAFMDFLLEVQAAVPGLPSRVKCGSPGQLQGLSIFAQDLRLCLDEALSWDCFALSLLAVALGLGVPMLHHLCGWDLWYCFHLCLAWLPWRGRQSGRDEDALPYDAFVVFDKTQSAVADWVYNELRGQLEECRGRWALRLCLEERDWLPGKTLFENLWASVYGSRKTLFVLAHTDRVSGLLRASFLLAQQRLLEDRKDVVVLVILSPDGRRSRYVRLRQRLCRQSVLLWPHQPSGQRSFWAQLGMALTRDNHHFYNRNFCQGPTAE
human TLR8, sequence (Q9NR97 27-1041): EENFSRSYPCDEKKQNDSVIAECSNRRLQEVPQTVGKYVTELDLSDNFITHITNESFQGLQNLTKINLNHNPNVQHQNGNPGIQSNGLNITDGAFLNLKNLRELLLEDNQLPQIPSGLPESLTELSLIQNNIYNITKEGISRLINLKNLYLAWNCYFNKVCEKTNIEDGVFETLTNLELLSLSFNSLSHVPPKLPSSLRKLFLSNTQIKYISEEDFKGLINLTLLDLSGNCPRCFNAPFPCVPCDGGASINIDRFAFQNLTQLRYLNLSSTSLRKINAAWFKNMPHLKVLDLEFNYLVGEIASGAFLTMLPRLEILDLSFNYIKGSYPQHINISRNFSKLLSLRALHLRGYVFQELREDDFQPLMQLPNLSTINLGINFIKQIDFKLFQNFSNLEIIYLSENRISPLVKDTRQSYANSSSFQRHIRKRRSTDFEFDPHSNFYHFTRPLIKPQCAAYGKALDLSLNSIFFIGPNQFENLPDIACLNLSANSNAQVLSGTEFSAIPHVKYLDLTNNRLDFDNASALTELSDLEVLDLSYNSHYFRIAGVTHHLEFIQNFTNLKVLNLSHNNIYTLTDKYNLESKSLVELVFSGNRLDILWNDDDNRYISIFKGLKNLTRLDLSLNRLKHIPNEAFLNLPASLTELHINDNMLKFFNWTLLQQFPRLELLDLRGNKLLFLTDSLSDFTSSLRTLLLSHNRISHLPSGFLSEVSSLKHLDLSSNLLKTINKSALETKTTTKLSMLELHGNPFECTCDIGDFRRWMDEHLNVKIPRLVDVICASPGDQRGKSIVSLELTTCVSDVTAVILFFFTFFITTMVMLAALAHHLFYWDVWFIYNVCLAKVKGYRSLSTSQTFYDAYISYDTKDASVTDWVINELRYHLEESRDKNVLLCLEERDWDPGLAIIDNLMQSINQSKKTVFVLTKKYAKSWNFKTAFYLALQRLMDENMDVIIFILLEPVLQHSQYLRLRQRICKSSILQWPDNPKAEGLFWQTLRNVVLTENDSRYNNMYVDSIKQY
human TLR7, sequence (Q9NYK1 27-1049): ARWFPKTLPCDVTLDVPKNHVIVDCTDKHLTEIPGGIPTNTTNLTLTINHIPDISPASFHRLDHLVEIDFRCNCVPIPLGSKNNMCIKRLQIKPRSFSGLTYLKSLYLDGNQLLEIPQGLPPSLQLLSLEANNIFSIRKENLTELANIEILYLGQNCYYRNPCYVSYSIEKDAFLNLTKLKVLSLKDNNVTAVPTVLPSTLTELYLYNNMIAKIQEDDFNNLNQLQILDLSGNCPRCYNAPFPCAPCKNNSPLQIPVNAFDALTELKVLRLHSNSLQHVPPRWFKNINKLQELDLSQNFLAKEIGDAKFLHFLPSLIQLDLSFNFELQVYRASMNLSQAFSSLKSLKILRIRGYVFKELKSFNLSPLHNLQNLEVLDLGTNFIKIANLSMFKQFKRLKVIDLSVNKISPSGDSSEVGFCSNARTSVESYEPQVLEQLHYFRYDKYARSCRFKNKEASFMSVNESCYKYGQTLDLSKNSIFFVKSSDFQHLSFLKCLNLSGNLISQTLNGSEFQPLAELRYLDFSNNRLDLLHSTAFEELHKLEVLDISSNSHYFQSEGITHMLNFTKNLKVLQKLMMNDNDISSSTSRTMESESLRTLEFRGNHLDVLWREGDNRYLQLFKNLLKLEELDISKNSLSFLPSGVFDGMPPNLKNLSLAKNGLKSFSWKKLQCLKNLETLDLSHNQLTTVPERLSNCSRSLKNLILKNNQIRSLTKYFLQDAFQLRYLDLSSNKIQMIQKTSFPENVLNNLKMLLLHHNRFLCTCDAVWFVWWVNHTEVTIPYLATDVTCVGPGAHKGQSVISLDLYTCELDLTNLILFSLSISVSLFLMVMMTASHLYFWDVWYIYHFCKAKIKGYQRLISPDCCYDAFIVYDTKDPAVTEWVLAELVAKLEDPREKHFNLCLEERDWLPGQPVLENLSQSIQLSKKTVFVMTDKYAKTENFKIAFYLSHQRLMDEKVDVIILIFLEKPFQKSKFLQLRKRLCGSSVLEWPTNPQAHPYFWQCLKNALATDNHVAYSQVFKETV

On to `Cc1cc(-c2[nH]c3ccc(-c4ccc(N5CCNCC5)nc4)cc3c2C(C)C)ccn1` [Example 255, 3-isopropyl-2-(2-methylpyridin-4-yl)-5-(6-(piperazin-1-yl)pyridin-3-yl)-1H-indole], for which the values for the IC50 against human TLR8, on human TLR9 and against human TLR7 were 2.9 nM, 340 nM and 12 nM, respectively.

As to `Cc1cc(-c2[nH]c3ccc(-c4nnc(C5CCCN(C(=O)CN(C)C)C5)[nH]4)cc3c2C(C)C)ccn1` (stereo not drawn) [Example 176, 2-(dimethylamino)-1-(3-(5-(3-isopropyl-2-(2-methylpyridin-4-yl)-1H-indol-5-yl)-4H-1,2,4-triazol-3-yl)piperidin-1-yl)ethan-1-one], the IC50 came to 6.3 nM against human TLR8, 1920 nM at human TLR9 and 51 nM against human TLR7.

`COc1ccc(-c2[nH]c3ccc(-c4cccc(N5CCNCC5)c4)cc3c2C(C)C)cc1OC` [Example 411, 2-(3,4-dimethoxyphenyl)-3-isopropyl-5-(3-(piperazin-1-yl)phenyl)-1H-indole]: the IC50 at human TLR8 was determined as 96 nM; against human TLR9, 8430 nM; on human TLR7, 604 nM.

With `Cc1cc(-c2[nH]c3ccc(-c4ccc(NC(C)C)nc4)cc3c2C(C)C)cc(C)n1` [Example 248, 5-(2-(2,6-dimethylpyridin-4-yl)-3-isopropyl-1H-indol-5-yl)-N-isopropylpyridin-2-amine], the IC50 is 2.6 nM at human TLR8, 4070 nM against human TLR9 and 20 nM against human TLR7.

In the case of `Cc1cc(-c2[nH]c3ccc(-c4nnc(CCCCN)o4)cc3c2C(C)C)ccn1` [Example 264, 4-(5-(3-isopropyl-2-(2-methylpyridin-4-yl)-1H-indol-5-yl)-1,3,4-oxadiazol-2-yl)butan-1-amine], the IC50 against human TLR8 stood at 36 nM; against human TLR9, 7270 nM; on human TLR7, 251 nM.

Consider `Cc1cc(-c2[nH]c3ccc(-c4nc(C(=O)NCCCN(C)C)co4)cc3c2C(C)C)cc(C)n1` [Example 280, N-(3-(dimethylamino)propyl)-2-(2-(2,6-dimethylpyridin-4-yl)-3-isopropyl-1H-indol-5-yl)oxazole-4-carboxamide], for which the IC50 was determined as 1.8 nM against human TLR8, 156 nM against human TLR9 and 3.8 nM on human TLR7.

As for `COc1ccc(-c2[nH]c3ccc(-c4ccc(N5CCN[C@H](C)C5)cc4)cc3c2C(C)C)cc1OC` [Example 383, (R)-2-(3,4-dimethoxyphenyl)-3-isopropyl-5-(4-(3-methylpiperazin-1-yl)phenyl)-1H-indole], the IC50 at human TLR8 turned out to be 45 nM; against human TLR9 it was 4630 nM; at human TLR7, 136 nM.

Regarding `CCN(CCN(C)C)C(=O)c1nnc(-c2ccc3[nH]c(-c4cc(C)nc(C)c4)c(C(C)C)c3c2)o1` [Example 300, N-(2-(dimethylamino)ethyl)-5-(2-(2,6-dimethylpyridin-4-yl)-3-isopropyl-1H-indol-5-yl)-N-ethyl-1,3,4-oxadiazole-2-carboxamide], the results for the IC50 on human TLR8, against human TLR9 and against human TLR7 were 2 nM, 346 nM and 10 nM, respectively.

As for `Cc1cc(-c2[nH]c3ccc(-c4cc5c(s4)CN(C(C)C)CC5)cc3c2C(C)C)cc(C)n1` [Example 325, 2-(2-(2,6-dimethylpyridin-4-yl)-3-isopropyl-1H-indol-5-yl)-6-isopropyl-4,5,6,7-tetrahydrothieno[2,3-c]pyridine], the IC50 was found to be 0.5 nM against human TLR8, 282 nM against human TLR9 and 11 nM against human TLR7.

As for `CNC(=O)CN1CCC(c2nnc(-c3ccc4[nH]c(-c5ccc(OC)c(OC)c5)c(C(C)C)c4c3)o2)CC1` [Example 23, 2-(4-(5-(2-(3,4-dimethoxyphenyl)-3-isopropyl-1H-indol-5-yl)-1,3,4-oxadiazol-2-yl)piperidin-1-yl)-N-methylacetamide], the IC50 was 43 nM against human TLR8, 6100 nM against human TLR9 and 207 nM against human TLR7.

On to `COc1ccc(-c2[nH]c3ccc(-c4nnc(C5CCN(C(=O)CN(C)C)CC5)[nH]4)cc3c2C(C)C)cc1OC` [Example 131, 1-(4-(5-(2-(3,4-dimethoxyphenyl)-3-isopropyl-1H-indol-5-yl)-4H-1,2,4-triazol-3-yl)piperidin-1-yl)-2-(dimethylamino)ethan-1-one], for which the IC50 against human TLR8 was 37 nM; against human TLR9 it was 6480 nM; against human TLR7 it was 29 nM.

Consider `Cc1cc(-c2[nH]c3ccc(-c4ccc(N5CCNCC5)nc4)cc3c2C(C)C)cc(C)n1` [Example 257, 2-(2,6-dimethylpyridin-4-yl)-3-isopropyl-5-(6-(piperazin-1-yl)pyridin-3-yl)-1H-indole], for which the IC50 came to 1.7 nM on human TLR8, 151 nM against human TLR9 and 1.7 nM against human TLR7.

For the compound `Cc1cc(-c2[nH]c3ccc(-c4nc(C(=O)NC5CCN(C(C)C)CC5)co4)cc3c2C(C)C)ccn1` [Example 173, 2-(3-isopropyl-2-(2-methylpyridin-4-yl)-1H-indol-5-yl)-N-(1-isopropylpiperidin-4-yl)oxazole-4-carboxamide], the IC50 against human TLR8 came to 2.9 nM; on human TLR9, 1840 nM; at human TLR7, 46 nM.

`Cc1cc(-c2[nH]c3ccc(-c4nnc(C[C@H]5CCCN5)o4)cc3c2C(C)C)ccn1` [Example 145, (R)-2-(3-isopropyl-2-(2-methylpyridin-4-yl)-1H-indol-5-yl)-5-(pyrrolidin-2-ylmethyl)-1,3,4-oxadiazole]: the IC50 worked out at 1 nM on human TLR8, 633 nM against human TLR9 and 34 nM against human TLR7.

Take `CC(C)c1c(-c2ccnc3[nH]ncc23)[nH]c2ccc(-c3nc(C(=O)NCCN(C)C)co3)cc12` [Example 234, N-(2-(dimethylamino)ethyl)-2-(3-isopropyl-2-(1H-pyrazolo[3,4-b]pyridin-4-yl)-1H-indol-5-yl)oxazole-4-carboxamide]: the IC50 was determined as 4.5 nM on human TLR8, 366 nM on human TLR9 and 229 nM against human TLR7.

`CCc1c(-c2ccnc(C)c2)[nH]c2ccc(-c3noc(C4CC5(CCNCC5)C4)n3)cc12` [Example 461, 3-(3-ethyl-2-(2-methylpyridin-4-yl)-1H-indol-5-yl)-5-(7-azaspiro[3.5]nonan-2-yl)-1,2,4-oxadiazole]: the values for the IC50 on human TLR8, against human TLR9 and on human TLR7 were 72 nM, 1540 nM and 321 nM, respectively.

In the case of `Cc1cc(-c2[nH]c3ccc(-c4nnc(C5CCCNC5)[nH]4)cc3c2C(C)C)cc(C)n1` (stereo not drawn) [Example 323, 2-(2,6-dimethylpyridin-4-yl)-3-isopropyl-5-(5-(piperidin-3-yl)-4H-1,2,4-triazol-3-yl)-1H-indole], the IC50 against human TLR8 worked out at 10 nM; against human TLR9, 322 nM; against human TLR7, 13 nM.

With `COc1ccc(-c2[nH]c3ccc(-c4cccc(C(=O)N5CC6CNCC6C5)c4)cc3c2CC(F)(F)F)cc1OC` (stereo not drawn) [Example 42, (3-(2-(3,4-dimethoxyphenyl)-3-(2,2,2-trifluoroethyl)-1H-indol-5-yl)phenyl)(hexahydropyrrolo[3,4-c]pyrrol-2(1H)-yl)methanone], the IC50 on human TLR8 was 27 nM; on human TLR9, 710 nM; against human TLR7, 448 nM.

Take `Cc1cc(-c2[nH]c3ccc(-c4nnc([C@@H]5CCNC5)o4)cc3c2C(C)C)ccn1` [Example 139, (R)-2-(3-isopropyl-2-(2-methylpyridin-4-yl)-1H-indol-5-yl)-5-(pyrrolidin-3-yl)-1,3,4-oxadiazole]: the figures for the IC50 at human TLR8, against human TLR9 and at human TLR7 were 2.8 nM, 523 nM and 28 nM, respectively.

With `Cc1cc(-c2[nH]c3ccc(-c4nnc(C5CCCN(C(C)C)C5)o4)cc3c2CC(F)F)cc(C)n1` (stereo not drawn) [Example 314, 2-(3-(2,2-difluoroethyl)-2-(2,6-dimethylpyridin-4-yl)-1H-indol-5-yl)-5-(1-isopropylpiperidin-3-yl)-1,3,4-oxadiazole], the IC50 against human TLR8 is 11 nM; against human TLR9, 106 nM; at human TLR7 it was 43 nM.

For `COc1ccc(-c2[nH]c3ccc(-c4cccc(N5CCN(C)CC5)c4)cc3c2C(C)C)cc1OC` [Example 369, 2-(3,4-dimethoxyphenyl)-3-isopropyl-5-(3-(4-methylpiperazin-1-yl)phenyl)-1H-indole], the IC50 against human TLR8 came out at 64 nM; against human TLR9, 2300 nM; against human TLR7 it was 2110 nM.

Consider `Cc1cc(-c2[nH]c3ccc(-c4nnc(NC(=O)CN(C)C)o4)cc3c2C(C)C)ccn1` [Example 190, 2-(dimethylamino)-N-(5-(3-isopropyl-2-(2-methylpyridin-4-yl)-1H-indol-5-yl)-1,3,4-oxadiazol-2-yl)acetamide], for which the IC50 against human TLR8 was determined as 9.1 nM; against human TLR9, 48500 nM; at human TLR7, 258 nM.

As for `CC(=O)N1CCc2nc(-c3ccc4[nH]c(-c5cc(C)nc(C)c5)c(C(C)C)c4c3)sc2C1` [Example 362, 1-(2-(2-(2,6-dimethylpyridin-4-yl)-3-isopropyl-1H-indol-5-yl)-6,7-dihydrothiazolo[5,4-c]pyridin-5(4H)-yl)ethan-1-one], the IC50 at human TLR8 was 9 nM; on human TLR9 it was more than 50000 nM; against human TLR7, 6.4 nM.

Turning to `Cc1cc(-c2[nH]c3ccc(-c4nnc(C5CCNCC5)o4)cc3c2C(C)C)ccn1` [Example 66, 2-(3-isopropyl-2-(2-methylpyridin-4-yl)-1H-indol-5-yl)-5-(piperidin-4-yl)-1,3,4-oxadiazole], the IC50 at human TLR8 was determined as 38 nM; at human TLR9, 2310 nM; against human TLR7, 53 nM.

With `Cc1cc(-c2[nH]c3ccc(-c4nnc(C5CCN(C(=O)CN(C)C)CC5)[nH]4)cc3c2C(C)C)ccn1` [Example 186, 2-(dimethylamino)-1-(4-(5-(3-isopropyl-2-(2-methylpyridin-4-yl)-1H-indol-5-yl)-4H-1,2,4-triazol-3-yl)piperidin-1-yl)ethan-1-one], the IC50 at human TLR8 is 16 nM; against human TLR9 it was 1500 nM; against human TLR7, 28 nM.
